Measured values published in PubChem BioAssay AID2060902 (Molecular Pharmacology Branch, DTP, NCI, 2025).

System: 485368-065-R3-J5-PDC spheroids with HUVEC/MSC, viability
Experiment: Anticancer human tumor 485368-065-R3-J5-PDC patient-derived pancreatic carcinoma cell line growth inhibition [RAS]
Conditions: for viability, T/C: stronger effect = lower value
In short: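 Tumour cells grown as complex spheroids with HUVEC endothelial cells and mesenchymal stem cells, treated with RAS pathway inhibitor combinations. Each agent spans half-log steps from near clinical Cmax, or 10 microM where Cmax is unknown.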
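Note: spheroids exposed to agents for seven days before readout.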

## O=C(c1ccc(F)c(F)c1Nc1ccc(I)cc1F)N1CC(O)([C@@H]2CCCCN2)C1 + C=CC(=O)N1CCN(c2nc(OCC3CCCN3C)nc3c(F)c(-c4nc(N)cc(C)c4C(F)(F)F)c(Cl)cc23)C(C)C1
Curve of first compound, second compound 0.00316 µM
  IC50: 0.0286 µM
Curve of first compound, second compound 0.01 µM
  IC50: 0.0278 µM
Curve of first compound, second compound 0.0316 µM
  IC50: 0.0311 µM
Curve of first compound, second compound 0.1 µM
  IC50: 0.0291 µM
Curve of first compound, second compound 0.316 µM
  IC50: 0.0344 µM
Curve of first compound, second compound 1 µM
  IC50: 0.0496 µM
Second compound 0.00316 µM, first compound 0.00316 µM
  viability, T/C: 106%
Second compound 0.00316 µM, first compound 0.01 µM
  viability, T/C: 60.2%
Second compound 0.00316 µM, first compound 0.0316 µM
  viability, T/C: 56.9%
Second compound 0.00316 µM, first compound 0.1 µM
  viability, T/C: 30.1%
Second compound 0.00316 µM, first compound 0.316 µM
  viability, T/C: 24.3%
Second compound 0.00316 µM, first compound 1 µM
  viability, T/C: 8.78%
Second compound 0.01 µM, first compound 0.00316 µM
  viability, T/C: 99.8%
Second compound 0.01 µM, first compound 0.01 µM
  viability, T/C: 71.6%
Second compound 0.01 µM, first compound 0.0316 µM
  viability, T/C: 44.8%
Second compound 0.01 µM, first compound 0.1 µM
  viability, T/C: 29.5%
Second compound 0.01 µM, first compound 0.316 µM
  viability, T/C: 26.1%
Second compound 0.01 µM, first compound 1 µM
  viability, T/C: 8.23%
Second compound 0.0316 µM, first compound 0.00316 µM
  viability, T/C: 90.9%
Second compound 0.0316 µM, first compound 0.01 µM
  viability, T/C: 73.1%
Second compound 0.0316 µM, first compound 0.0316 µM
  viability, T/C: 47.8%
Second compound 0.0316 µM, first compound 0.1 µM
  viability, T/C: 29.8%
Second compound 0.0316 µM, first compound 0.316 µM
  viability, T/C: 23.1%
Second compound 0.0316 µM, first compound 1 µM
  viability, T/C: 7.64%
Second compound 0.1 µM, first compound 0.00316 µM
  viability, T/C: 86%
Second compound 0.1 µM, first compound 0.01 µM
  viability, T/C: 72.3%
Second compound 0.1 µM, first compound 0.0316 µM
  viability, T/C: 44.6%
Second compound 0.1 µM, first compound 0.1 µM
  viability, T/C: 30.4%
Second compound 0.1 µM, first compound 0.316 µM
  viability, T/C: 25.3%
Second compound 0.1 µM, first compound 1 µM
  viability, T/C: 8.95%
Second compound 0.316 µM, first compound 0.00316 µM
  viability, T/C: 85.8%
Second compound 0.316 µM, first compound 0.01 µM
  viability, T/C: 68.6%
Second compound 0.316 µM, first compound 0.0316 µM
  viability, T/C: 50.5%
Second compound 0.316 µM, first compound 0.1 µM
  viability, T/C: 33.1%
Second compound 0.316 µM, first compound 0.316 µM
  viability, T/C: 26.8%
Second compound 0.316 µM, first compound 1 µM
  viability, T/C: 8.9%
Second compound 1 µM, first compound 0.00316 µM
  viability, T/C: 91.6%
Second compound 1 µM, first compound 0.01 µM
  viability, T/C: 65.5%
Second compound 1 µM, first compound 0.0316 µM
  viability, T/C: 52.7%
Second compound 1 µM, first compound 0.1 µM
  viability, T/C: 47.3%
Second compound 1 µM, first compound 0.316 µM
  viability, T/C: 27.6%
Second compound 1 µM, first compound 1 µM
  viability, T/C: 11.4%

## CCC(CC)c1cc(NC2CCC(N)C2)n2nccc2n1 (configuration not stated) + CCn1c(-c2cccnc2C(C)OC)c2c3cc(ccc31)N1CCOC(CC(NC(=O)C(C(C)C)N(C)C(=O)C3(F)CCN(C(=O)C#CC(C)(C)N(C)C)CC3)C(=O)N3CCCC(N3)C(=O)OCC(C)(C)C2)C1
Curve of first compound, second compound 0.000949 µM
  IC50: 1.98 µM
Curve of first compound, second compound 0.003 µM
  IC50: 2.01 µM
Curve of first compound, second compound 0.00949 µM
  IC50: 1.99 µM
Curve of first compound, second compound 0.03 µM
  IC50: 2.03 µM
Curve of first compound, second compound 0.0949 µM
  IC50: 2.04 µM
Curve of first compound, second compound 0.3 µM
  IC50: 2 µM
Second compound 0.000949 µM, first compound 0.0316 µM
  viability, T/C: 104%
Second compound 0.000949 µM, first compound 0.1 µM
  viability, T/C: 97.3%
Second compound 0.000949 µM, first compound 0.316 µM
  viability, T/C: 116%
Second compound 0.000949 µM, first compound 1 µM
  viability, T/C: 133%
Second compound 0.000949 µM, first compound 3.16 µM
  viability, T/C: 5.59%
Second compound 0.000949 µM, first compound 10 µM
  viability, T/C: 9.62%
Second compound 0.003 µM, first compound 0.0316 µM
  viability, T/C: 102%
Second compound 0.003 µM, first compound 0.1 µM
  viability, T/C: 109%
Second compound 0.003 µM, first compound 0.316 µM
  viability, T/C: 116%
Second compound 0.003 µM, first compound 1 µM
  viability, T/C: 133%
Second compound 0.003 µM, first compound 3.16 µM
  viability, T/C: 5.13%
Second compound 0.003 µM, first compound 10 µM
  viability, T/C: 10.4%
Second compound 0.00949 µM, first compound 0.0316 µM
  viability, T/C: 95.7%
Second compound 0.00949 µM, first compound 0.1 µM
  viability, T/C: 112%
Second compound 0.00949 µM, first compound 0.316 µM
  viability, T/C: 101%
Second compound 0.00949 µM, first compound 1 µM
  viability, T/C: 138%
Second compound 0.00949 µM, first compound 3.16 µM
  viability, T/C: 4.94%
Second compound 0.00949 µM, first compound 10 µM
  viability, T/C: 11.5%
Second compound 0.03 µM, first compound 0.0316 µM
  viability, T/C: 104%
Second compound 0.03 µM, first compound 0.1 µM
  viability, T/C: 103%
Second compound 0.03 µM, first compound 0.316 µM
  viability, T/C: 112%
Second compound 0.03 µM, first compound 1 µM
  viability, T/C: 152%
Second compound 0.03 µM, first compound 3.16 µM
  viability, T/C: 4.96%
Second compound 0.03 µM, first compound 10 µM
  viability, T/C: 11%
Second compound 0.0949 µM, first compound 0.0316 µM
  viability, T/C: 105%
Second compound 0.0949 µM, first compound 0.1 µM
  viability, T/C: 108%
Second compound 0.0949 µM, first compound 0.316 µM
  viability, T/C: 114%
Second compound 0.0949 µM, first compound 1 µM
  viability, T/C: 149%
Second compound 0.0949 µM, first compound 3.16 µM
  viability, T/C: 5.12%
Second compound 0.0949 µM, first compound 10 µM
  viability, T/C: 10.1%
Second compound 0.3 µM, first compound 0.0316 µM
  viability, T/C: 108%
Second compound 0.3 µM, first compound 0.1 µM
  viability, T/C: 111%
Second compound 0.3 µM, first compound 0.316 µM
  viability, T/C: 120%
Second compound 0.3 µM, first compound 1 µM
  viability, T/C: 123%
Second compound 0.3 µM, first compound 3.16 µM
  viability, T/C: 4.15%
Second compound 0.3 µM, first compound 10 µM
  viability, T/C: 9.84%

## CCc1c2c(nc3ccc(O)cc13)-c1cc3c(c(=O)n1C2)COC(=O)[C@]3(O)CC
Compound 0.000949 µM
  viability, T/C: 86.9% [middle of 4 runs]
Compound 0.003 µM
  viability, T/C: 34.5% [middle of 4 runs]
Compound 0.00949 µM
  viability, T/C: 14.6% [middle of 4 runs]
Compound 0.03 µM
  viability, T/C: 7.01% [middle of 4 runs]
Compound 0.0949 µM
  viability, T/C: 4.37% [middle of 4 runs]
Compound 0.3 µM
  viability, T/C: 3.18% [middle of 4 runs]
Curve of compound
  IC50: 2.19 nM [middle of 4 runs]

## CCN1CCN(Cc2ccc(Nc3ncc(F)c(-c4cc(F)c5nc(C)n(C(C)C)c5c4)n3)nc2)CC1
Compound 0.00316 µM
  viability, T/C: 99.7% [middle of 4 runs]
Compound 0.01 µM
  viability, T/C: 91.6% [middle of 4 runs]
Compound 0.0316 µM
  viability, T/C: 90.2% [middle of 4 runs]
Compound 0.1 µM
  viability, T/C: 75.6% [middle of 4 runs]
Compound 0.316 µM
  viability, T/C: 59.6% [middle of 4 runs]
Compound 1 µM
  viability, T/C: 45.4% [middle of 4 runs]
